Entries after “also recorded” stand apart in the source; their conditions may differ. Like-named read-outs stand apart in the source and are kept apart here.
Columns and labels:
[1] = Pharmacokinetics after oral gavage to male beagle dogs with different pre-treatments (Amgen study 150528); format: in vivo; conditions: 3 mg/kg PO; for Decrease in exposure / bioavailability with change of stomach pH: beagle dogs; for half-life: read-out: T½ (converted); for bioavailability: compared to Phase 1 of the same form, read-out: Relative % F
Method: The pharmacokinetics of AMG 397 were assessed following oral administration to male beagle dogs as either a suspension of the crystalline hydrate form of AMG 397 or an amorphous suspension in 2% HPMC, 0.01% Tween 80. The full protocol is described in Amgen study number 150528. The goal of this study was to determine if the amorphous material would lead to increases in bioavailability and if variability in dosing could be reduced. In addition, oncology patients could be receiving acid-reducing agents as co-medication, so it is important to determine if exposure is reduced with elevated stomach pH and if an amorphous formulation of AMG 397 could overcome the drug-drug interaction (DDI). For the studies below, Form 1 is the crystalline hydrate form of AMG 397 and amorphous is the amorphous form of AMG 397.
(§1) Briefly, during each phase five male beagle dogs were assigned to each group of the study. All animals were fasted for at least eight hours prior to dosing and through the first four hours of blood sample collection for each phase. Food was returned within 30 minutes following collection of the last blood sample at the four-hour collection interval. Each animal in Phase 1, received a single oral (PO) gavage dose of the appropriate test article formulation as outlined in the study design Table 6. Oral gavage dosing formulations were continuously stirred throughout dosing. The gavage tube was rinsed with approximately 10 mL of tap water following dosing (prior to removal of the gavage tube). Following each study phase a 7-day washout period was allowed prior to the dosing of the next phase. The same five dogs were assigned to either group 1 or group 2 formulations for the duration of the study.
(§2) Test Article Administration: A total of 10 male beagle dogs were initially assigned to study. All animals were fasted for at least eight hours prior to dosing and through the first four hours of blood sample collection for each phase, where applicable (food will be returned within 30 minutes following collection of the last blood sample at the four hour collection interval, where applicable). Total fasting time […] 24 hours.
Each animal in Phase 1, Groups 1 and 2 received a single oral (PO) gavage dose of the appropriate test article formulation as outlined in the following study design table. Oral gavage dosing formulations was continuously stirred throughout dosing. The gavage tube was rinsed with approximately 10 mL of tap water following dosing (prior to removal of the gavage tube). No pre-treatment will be required for Phase 1.
After a 7-day washout period, each animal in Phase 2, Groups land 2 received a single oral (PO) gavage dose of the appropriate test article formulation as outlined in the following study design table. Oral gavage dosing formulations were continuously stirred throughout dosing. The gavage tube were rinsed with approximately 10 mL of tap water following dosing (prior to removal of the gavage tube). Two hours prior to dosing, each animal received two 20 mg (40 mg total) oral tablets of famotidine followed by a 10 mL dose of deionized water.
After another 7-day washout period, each animal in Phase 3, Groups land 2 received a single oral (PO) gavage dose of the appropriate test article formulation as outlined in the following study design table. Oral gavage dosing formulations were continuously stirred throughout dosing. The gavage tube was rinsed with approximately 10 mL of tap water following dosing (prior to removal of the gavage tube). Thirty minutes prior to dosing, each animal received an intramuscular dose of pentagastrin in phosphate buffered saline at a dose level of 0.006 mg/kg and a dose volume of 0.05 mL/kg.
After a final 7-day washout period, each animal in Phase 4, Groups 1 and 2 received a single oral (PO) gavage dose of the appropriate test article formulation as outlined in the following study design table. Oral gavage dosing formulations were continuously stirred throughout dosing. […]

[2] = Moisture sorption profile (DVS); format: physicochemical; conditions: by 95% RH; listed as crystalline hydrate form of AMG 397
Method: Moisture Sorption: Moisture sorption data was collected using a Surface Measurement Systems DVSAdvantage instrument. Equilibrium criteria were set at ±0.001% weight change in 10 minutes with a maximum equilibrium time of 380 minutes.
Moisture Sorption: Moisture sorption data was collected using a Surface Measurement Systems DVSAdvantage instrument. Equilibrium criteria were set at ±0.001% weight change in 10 minutes with a maximum equilibrium time of 360 minutes.

[3] = Clinical observations in the beagle dog PK study; format: in vivo, male beagle dogs; conditions: 3 mg/kg PO, individual dogs, listed as AMG 397 Form 1
Method: as §1, §2
Different pre-treatments were assigned for each phase of the study to mimic several scenarios: • 1. No pre-treatment was administered for Phase 1 as it served as a control. • 2. During Phase 2, at 1 hour 54 minutes to 1 hour 58 minutes prior to dose administration, all animals were pretreated with two 20 mg (40 mg total) oral tablets of famotidine followed by a 10 mL dose of deionized water. […] This was used to determine the role of stomach pH on exposure. • 3. During Phases 3 and 4, at 30 to 38 minutes prior to dose administration, all animals were pretreated with a single intramuscular dose of pentagastrin in phosphate buffered saline, pH 7.4, at a dose level of 0.006 mg/kg and a dose volume of 0.05 mL/kg. The pentagastrin dose was used to ensure that the dogs stomach pH was normalized to pH ˜2.0 as it is known that the dogs stomach pH is often higher than that of humans under resting conditions. • 4. In addition, […], at 1 hour 3 minutes to 1 hour 6 minutes prior to dose administration and 4 hours 10 minutes to 4 hours 11 minutes following dose by oral gavage at a dose level of 3 mg/kg and a dose volume of 4 mL/kg. This final phase was used to study if P-gp played a role in absorption.

[4] = Phase 1, no pre-treatment, male beagle dogs
[5] = Phase 2, famotidine pre-treatment (stomach pH ~6.5), male beagle dogs
[6] = male, beagle, dog, plasma, po, 3 mg/kg, Phase 3, pentagastrin pre-treatment (stomach pH ~2.0), male beagle dogs
[7] = male, beagle, dog, plasma, po, 3 mg/kg, Phase 4, pentagastrin pre-treatment + P-gp inhibitor GF120918, male beagle dogs

CO[C@]1(CN2CCN3CCCC[C@@H]3C2)/C=C/C[C@H](C)[C@@H](C)S(=O)(=O)NC(=O)c2ccc3c(c2)N(C[C@@H]2CC[C@H]21)C[C@@]1(CCCc2cc(Cl)ccc21)CO3 [AMG 397 Crystalline Hydrate]
AUCt [1, 4]: 5.5 µM·h | Cl/F [1, 4]: 41.7 mL/min/kg | Cmax [1, 4]: 230 nM | Tmax [1, 4]: 12.4 h | AUCt [1, 5]: 6.3 µM·h | Cl/F [1, 5]: 43.3 mL/min/kg | Cmax [1, 5]: 260 nM | Cl/F ([1]; Phase 3, pentagastrin pre-treatment (stomach pH ~2.0), male beagle dogs): 13.8 mL/min/kg | Decrease in exposure / bioavailability with change of stomach pH ([1]; listed as crystalline hydrate form of AMG 397, 3 mg/kg): ≤ 2 fold | Decrease in exposure / bioavailability with change of stomach pH ([1]; listed as crystalline hydrate form, 3 mg/kg): 2 fold | half-life ([1]; male, beagle, dog, plasma, po, 3 mg/kg, Phase 1, no pre-treatment, male beagle dogs): 17.3 h | bioavailability ([1]; male, beagle, dog, plasma, po, 3 mg/kg, Phase 1, no pre-treatment): 100% | Tmax ([1]; male, beagle, dog, plasma, po, 3 mg/kg, Phase 2, famotidine pre-treatment (stomach pH ~6.5), male beagle dogs, read-out: Tmax): 12.8 h | half-life ([1]; male, beagle, dog, plasma, po, 3 mg/kg, Phase 2, famotidine pre-treatment (stomach pH ~6.5), male beagle dogs): 16.5 h | bioavailability ([1]; male, beagle, dog, plasma, po, 3 mg/kg, Phase 2, famotidine pre-treatment): 113% | AUC(0-t) [1, 6]: 11.3 µM·h | Cmax [1, 6]: 450 nM | Tmax ([1]; male, beagle, dog, plasma, po, 3 mg/kg, Phase 3, pentagastrin pre-treatment (stomach pH ~2.0), male beagle dogs, read-out: Tmax): 13.2 h | half-life [1, 6]: 23.3 h | AUC(0-t) [1, 7]: 16.3 µM·h | CL/F [1, 7]: 5.17 mL/min/kg | Cmax [1, 7]: 600 nM | Tmax ([1]; male, beagle, dog, plasma, po, 3 mg/kg, Phase 4, pentagastrin pre-treatment + P-gp inhibitor GF120918, male beagle dogs, read-out: Tmax): 11.6 h | half-life [1, 7]: 25 h | Moisture sorption weight gain [2]: 3.3% | Positive clinical findings (observation) ([3]; Phase 2 (Days 8 to 14), famotidine pre-treatment): Limb function impaired | Positive clinical findings (observation) ([3]; Phase 3 (Days 15 to 21), pentagastrin pre-treatment): White, frothy vomitus; also recorded: Limb function impaired; also recorded: Wet hair on entire body; also recorded: Inappetence | Positive clinical findings (observation) ([3]; Phase 4 (Days 22 to 24), pentagastrin pre-treatment and inhibitor GF120918 pre- and post-treatment): Large amount of white,

Reference: patent US12643913B2, “Mcl-1 inhibitor formulations” (AMGEN INC., priority 2020, dated 2026)
